Experimental data from US7888042B2, “Methods for identifying insulin mimetics” (Ohio University, priority 2005, dated 2011).
Where “and” joins values, the source holds several entries; their conditions need not be identical. Identical values can stand only once.

Tests used:
[1] = molecular target: T1, pure recombinant glycosylated IR (Homo sapiens, UniProt P06213); test: Surface plasmon resonance binding to IR; conditions: SPR, IR bound to NTA chip; read-out: apparent binding affinity (Kd) to IR
T1 construct: purchased R&D Systems, Inc
T1 sequence (P06213 28-746 isoform P06213-2 limits assumed): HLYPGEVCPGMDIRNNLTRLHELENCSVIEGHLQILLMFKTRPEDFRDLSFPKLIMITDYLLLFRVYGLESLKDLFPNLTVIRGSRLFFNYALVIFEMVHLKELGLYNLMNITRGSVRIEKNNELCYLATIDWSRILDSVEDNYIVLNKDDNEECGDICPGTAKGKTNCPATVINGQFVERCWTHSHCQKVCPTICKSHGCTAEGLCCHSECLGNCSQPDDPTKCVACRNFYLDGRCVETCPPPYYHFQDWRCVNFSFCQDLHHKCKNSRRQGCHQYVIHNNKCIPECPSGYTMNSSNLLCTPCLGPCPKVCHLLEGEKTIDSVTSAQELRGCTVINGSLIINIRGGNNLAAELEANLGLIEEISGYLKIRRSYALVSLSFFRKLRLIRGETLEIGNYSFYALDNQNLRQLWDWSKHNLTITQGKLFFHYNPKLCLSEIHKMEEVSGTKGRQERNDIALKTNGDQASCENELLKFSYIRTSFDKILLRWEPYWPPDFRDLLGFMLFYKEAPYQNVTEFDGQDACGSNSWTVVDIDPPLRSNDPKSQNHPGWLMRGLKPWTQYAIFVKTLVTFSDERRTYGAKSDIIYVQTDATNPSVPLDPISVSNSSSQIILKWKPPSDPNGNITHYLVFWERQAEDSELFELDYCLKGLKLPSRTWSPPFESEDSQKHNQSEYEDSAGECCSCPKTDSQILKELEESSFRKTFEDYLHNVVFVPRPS
T1 sequence (P06213 763-956 limits assumed): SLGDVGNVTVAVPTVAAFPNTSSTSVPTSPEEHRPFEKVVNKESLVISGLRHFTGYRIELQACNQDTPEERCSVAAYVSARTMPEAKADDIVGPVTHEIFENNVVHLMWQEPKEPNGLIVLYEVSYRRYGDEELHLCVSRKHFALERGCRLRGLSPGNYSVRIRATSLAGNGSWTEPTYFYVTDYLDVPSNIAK
Procedure: (§1) (A) α-PGG binds to IR as measured by a SPR (28). Increasing concentrations of α-PGG was injected into the system to interact with the pure IR attached to the gold surface of the biosensor chip. The binding, represented in arbitrary response units, was automatically plotted against α-PGG concentrations to generate the binding curve. (B) Insulin binding to IR in the absence or presence of α-PGG. Increasing amounts of ^125I-labeled insulin were added to WGA-coated wells containing pre-bound IR isolated from CHO-IR cells in the absence of α-PGG or in the presence of 30 μM or 50 μM of α-PGG. After overnight incubation, removal of excessive ligands, and washing, the bound radioactive insulin was measured. (C) Insulin displacement by α-PGG. Fixed amounts of radioactive insulin (1 nM) were added to each of the WGA-coated wells pre-bound with IR. Increasing amounts of α-PGG were added to the wells to displace the ^125I-labeled insulin. […]
(§2) Insulin receptor binding studies. […] After sensograms of α-PGG-IR binding at different concentrations were recorded, the binding affinity was analyzed using BIAevaluation software. […] The bound ligand was detached (eluted) from the receptor with 2×200 μL 0.2M Glycine pH 2.8, and measured for its radioactivity using a Beckman Coulter LS 6400 Multi-Purpose Scintillation Counter. […] The receptor binding results were analyzed with the software GraphPad Prism.

[2] = molecular target: T2, IR isolated from CHO-IR cells (Homo sapiens, UniProt P06213); test: 125I-insulin saturation binding to IR in WGA-coated wells; conditions: 30 μM or 50 μM α-PGG
T2 construct: expressed in transfected cells; host or cells: CHO-IR cells (from Dr. Alan Saltiel's lab)
T2 sequence (P06213 28-758 limits assumed): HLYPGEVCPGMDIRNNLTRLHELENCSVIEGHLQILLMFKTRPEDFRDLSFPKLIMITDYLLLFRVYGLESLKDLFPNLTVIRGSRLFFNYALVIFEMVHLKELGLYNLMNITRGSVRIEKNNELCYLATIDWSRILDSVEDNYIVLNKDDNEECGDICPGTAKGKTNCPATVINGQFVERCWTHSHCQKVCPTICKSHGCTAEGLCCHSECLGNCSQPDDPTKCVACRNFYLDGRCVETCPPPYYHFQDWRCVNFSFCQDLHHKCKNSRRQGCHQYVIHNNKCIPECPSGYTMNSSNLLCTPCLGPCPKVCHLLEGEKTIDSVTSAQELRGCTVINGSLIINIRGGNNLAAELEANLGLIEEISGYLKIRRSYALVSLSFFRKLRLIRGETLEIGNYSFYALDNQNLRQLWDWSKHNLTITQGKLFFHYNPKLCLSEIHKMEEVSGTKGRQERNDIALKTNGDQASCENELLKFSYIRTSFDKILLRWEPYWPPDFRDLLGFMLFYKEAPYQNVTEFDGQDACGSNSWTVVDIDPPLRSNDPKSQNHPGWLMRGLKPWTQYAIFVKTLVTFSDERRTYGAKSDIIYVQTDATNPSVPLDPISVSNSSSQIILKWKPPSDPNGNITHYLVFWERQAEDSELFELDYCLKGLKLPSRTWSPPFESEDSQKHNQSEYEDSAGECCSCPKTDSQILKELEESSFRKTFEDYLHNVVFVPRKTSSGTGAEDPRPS
T2 sequence (P06213 763-1382 partner limits assumed): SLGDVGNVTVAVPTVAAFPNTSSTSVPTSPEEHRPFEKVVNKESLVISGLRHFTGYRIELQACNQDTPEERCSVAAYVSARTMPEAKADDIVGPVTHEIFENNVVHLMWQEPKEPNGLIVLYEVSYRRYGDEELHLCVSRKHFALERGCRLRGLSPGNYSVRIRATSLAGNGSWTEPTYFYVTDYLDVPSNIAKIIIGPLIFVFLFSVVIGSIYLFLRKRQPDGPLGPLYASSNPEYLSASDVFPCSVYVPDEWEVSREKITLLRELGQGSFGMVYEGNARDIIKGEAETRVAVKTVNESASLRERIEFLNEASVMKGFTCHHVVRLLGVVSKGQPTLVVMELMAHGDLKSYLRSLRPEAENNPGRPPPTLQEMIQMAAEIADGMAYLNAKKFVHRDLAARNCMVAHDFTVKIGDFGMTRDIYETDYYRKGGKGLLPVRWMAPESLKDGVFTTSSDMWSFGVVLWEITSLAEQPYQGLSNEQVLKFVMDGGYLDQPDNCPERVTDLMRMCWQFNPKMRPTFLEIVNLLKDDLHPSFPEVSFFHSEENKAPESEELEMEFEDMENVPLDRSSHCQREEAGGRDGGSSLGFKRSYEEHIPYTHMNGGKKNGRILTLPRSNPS
Procedure: as §1, §2

[3] = molecular target: T2, IR isolated from CHO-IR cells; test: 125I-insulin displacement assay in WGA-coated wells; type: binding; conditions: 1 nM 125I-labeled insulin; read-out: IC50 for displacement of IR-bound radioactive insulin
Procedure: as §1, §2

α-subunit of IR = molecular target: T3, α-subunit of IR (Mus musculus, UniProt P15208); test: Cross-linking with Sulfo-SANPAH and Western blot with anti-IR α-subunit antibody; type: cell-based; conditions: adipocytes, 200 μM, Sulfo-SANPAH, UV
T3 construct: endogenous in cells; host or cells: 3T3-L1 adipocytes (ATCC)
T3 sequence (P15208 28-748 limits assumed): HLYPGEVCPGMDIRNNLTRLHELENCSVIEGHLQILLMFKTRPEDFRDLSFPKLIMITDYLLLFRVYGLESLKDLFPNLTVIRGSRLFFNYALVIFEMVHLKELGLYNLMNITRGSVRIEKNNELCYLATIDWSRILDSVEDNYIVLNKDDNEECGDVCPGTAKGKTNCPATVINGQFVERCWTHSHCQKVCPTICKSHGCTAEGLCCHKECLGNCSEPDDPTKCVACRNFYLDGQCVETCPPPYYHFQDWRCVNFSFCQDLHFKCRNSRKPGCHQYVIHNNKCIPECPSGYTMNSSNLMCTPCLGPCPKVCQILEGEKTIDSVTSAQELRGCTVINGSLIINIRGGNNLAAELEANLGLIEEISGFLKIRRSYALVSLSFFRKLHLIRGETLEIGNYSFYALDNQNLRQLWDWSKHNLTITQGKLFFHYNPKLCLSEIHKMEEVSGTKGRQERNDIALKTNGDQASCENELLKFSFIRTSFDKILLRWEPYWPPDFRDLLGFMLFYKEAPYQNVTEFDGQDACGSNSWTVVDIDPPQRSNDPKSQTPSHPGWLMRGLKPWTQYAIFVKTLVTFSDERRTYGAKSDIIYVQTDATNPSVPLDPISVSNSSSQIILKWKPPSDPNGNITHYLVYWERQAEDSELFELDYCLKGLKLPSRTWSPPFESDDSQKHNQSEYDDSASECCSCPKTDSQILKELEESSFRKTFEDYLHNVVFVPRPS
T3 sequence (P15208 753-1372 partner limits assumed): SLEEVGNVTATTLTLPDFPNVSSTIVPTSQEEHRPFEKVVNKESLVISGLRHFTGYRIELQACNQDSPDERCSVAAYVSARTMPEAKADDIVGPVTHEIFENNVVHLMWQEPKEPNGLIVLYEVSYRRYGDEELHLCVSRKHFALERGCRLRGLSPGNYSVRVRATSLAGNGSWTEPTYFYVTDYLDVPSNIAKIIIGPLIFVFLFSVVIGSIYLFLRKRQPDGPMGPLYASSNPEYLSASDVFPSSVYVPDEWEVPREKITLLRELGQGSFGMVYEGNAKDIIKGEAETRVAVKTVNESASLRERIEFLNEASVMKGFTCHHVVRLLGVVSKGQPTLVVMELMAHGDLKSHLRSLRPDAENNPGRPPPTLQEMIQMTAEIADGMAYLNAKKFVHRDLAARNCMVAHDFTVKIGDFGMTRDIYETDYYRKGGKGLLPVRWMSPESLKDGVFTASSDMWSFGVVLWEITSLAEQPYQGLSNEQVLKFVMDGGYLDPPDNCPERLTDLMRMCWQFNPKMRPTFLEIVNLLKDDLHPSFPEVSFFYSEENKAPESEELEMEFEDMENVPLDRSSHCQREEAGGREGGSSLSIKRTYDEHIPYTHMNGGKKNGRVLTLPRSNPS
Procedure: as §1
For the cross-linking reaction, sulfosuccinimidyl-6-(4′-azido-2′-nitrophenylamino) hexanoate (Sulfo-SANPAH), a photoactive, non-cleavable cross-linker (31, 32) purchased from Pierce was used to cross link β-PGG to plasma membrane proteins that it interacts with. […] Cells were lysed and the total cell protein was isolated and separated on an 8% reducing SDS-PAGE, transferred to a nylon membrane, and analyzed with an anti-IR α-subunit antibody.

[4] = Body weight, food intake and physical activity of treated mice; type: in vivo; conditions: treated mice vs control mice
Procedure: Animal studies. Genetically diabetic db/db mice or obese ob/ob mice were purchased from Jackson Lab. Male mice of 2-3 months of age were used. Unless otherwise stated, 10 mice (N=10) were used per group. α-PGG was either orally administered or intraperitoneally (ip) injected in the form of an aqueous solution at 20 mg/kg body weight with a 1-cc sterile plastic syringe. At different times after the α-PGG administration, blood or plasma was collected from the tail vein for measurement of glucose and insulin concentrations using commercial kits. Vehicle (aqueous solution) treated mice were used as controls and were statistically compared with the α-PGG treated mice. All animal studies were conducted in accord with the Ohio University guidelines for the use and care of laboratory animals.

Compound: O=C(OC[C@H]1O[C@H](OC(=O)c2cc(O)c(O)c(O)c2)[C@H](OC(=O)c2cc(O)c(O)c(O)c2)[C@@H](OC(=O)c2cc(O)c(O)c(O)c2)[C@@H]1OC(=O)c1cc(O)c(O)c(O)c1)c1cc(O)c(O)c(O)c1 [α-PGG, alpha 1,2,3,4,6-penta-O-galloyl-D-Glucopyranose]
- Kd [1]: 43 µM and ~43 µM
- maximal binding (Bmax) for insulin [2]: reduced in a dose-dependent manner
- IC50 [3]: 10 ± 1 µM
- gel migration of IR α-subunit after cross-linking (α-subunit of IR): Gel retardation of α-subunit of IR
- body weight [4]: No significant changes
- food intake [4]: No significant changes
- physical activity [4]: No significant changes
